Results as given in publication PMC10892288, “Early Stage Preclinical Formulation Strategies to Alter the Pharmacokinetic Profile of Two Small Molecule Therapeutics” (Pharmaceuticals, 2024).

Columns and labels:
[1] = Water solubility (physiochemical properties); format: physicochemical
[2] = Log P (physiochemical properties); format: physicochemical
[3] = pKa (physiochemical properties); format: physicochemical
Description: Table 1 Physiochemical properties of […] and […]. | column: […]; […]

[4] = Permeability (physiochemical properties); format: in vitro ADME
HPK1 = HPK1 (Homo sapiens, UniProt Q92918); test: Potency (IC50) of HPK1 inhibitor
HPK1, sequence (Q92918 whole entry, species assumed): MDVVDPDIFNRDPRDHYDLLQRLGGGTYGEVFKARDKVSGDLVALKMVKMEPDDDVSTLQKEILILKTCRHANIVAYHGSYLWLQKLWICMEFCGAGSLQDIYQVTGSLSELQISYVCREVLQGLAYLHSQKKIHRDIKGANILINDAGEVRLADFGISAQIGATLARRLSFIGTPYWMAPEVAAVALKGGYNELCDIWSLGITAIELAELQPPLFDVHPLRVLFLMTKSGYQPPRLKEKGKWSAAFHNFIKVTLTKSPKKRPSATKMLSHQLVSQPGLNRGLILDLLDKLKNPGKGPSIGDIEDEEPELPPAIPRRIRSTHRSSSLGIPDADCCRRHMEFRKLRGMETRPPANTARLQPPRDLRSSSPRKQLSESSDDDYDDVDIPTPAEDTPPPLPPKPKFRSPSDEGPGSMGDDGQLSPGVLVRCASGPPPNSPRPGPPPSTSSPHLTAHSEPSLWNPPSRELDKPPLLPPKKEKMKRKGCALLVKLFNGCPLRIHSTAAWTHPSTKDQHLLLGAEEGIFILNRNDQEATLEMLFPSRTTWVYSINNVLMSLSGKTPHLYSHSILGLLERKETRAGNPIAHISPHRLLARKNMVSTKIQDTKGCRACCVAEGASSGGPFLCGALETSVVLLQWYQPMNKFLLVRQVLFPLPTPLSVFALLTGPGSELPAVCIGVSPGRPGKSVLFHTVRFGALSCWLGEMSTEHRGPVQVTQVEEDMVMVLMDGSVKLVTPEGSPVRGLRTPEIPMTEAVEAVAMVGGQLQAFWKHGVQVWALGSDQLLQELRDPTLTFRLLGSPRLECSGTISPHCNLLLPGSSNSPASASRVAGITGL

[5] = Mouse PK of G6893, PO in MCT vehicle; format: in vivo, female C57BL-6 mice; settings: female, C57BL-6, plasma, 30 mg/kg, PO 30 mpk, MCT vehicle pH 2.5, mouse
Protocol: A total of 0.6% w/v Methylcellulose, 0.2% w/v Tween 80 in water (MCT) was prepared by slowly adding Methylcellulose (Methylocel A15 LV; CAS 9004-67-5, Part ID: 64605-500G-F 27.5-31.5% Methoxyl basis, Sigma-Aldrich, St. Louis, MO, USA) in small portions to prevent clumping while stirring into water at 70–80 °C. Once a homogeneous suspension formed, Tween 80 (Polysorbate 80; CAS#9005-65-6 (Polyoxyethylene (20) Sorbitan Monooleate; Tween 80) Part ID: PO138, Spectrum Chemical, New Brunswick, NJ, USA) was added and stirred until fully dissolved. Vehicle was filtered through 0.22 µm PES (Corning REF no. 431098) prior to adding to the compound for dosing. Respective compound was added based on the target concentration to the MCT vehicle and stirred at 35 °C until the power was well-dispersed. Formulations were homogenized through a polytron homogenizer and then sonicated in a water bath sonicator until a homogeneous suspension was achieved.
The pharmacokinetics of G7883 were determined in female CD-1 mice obtained from Charles River Laboratories (Hollister, CA, USA) with a body weight ranging from 20 to 25 g. The pharmacokinetics of G6893 were determined in female C57BL-6 mice (Lingchang/Vital River Laboratory Animal Co., Ltd., Shanghai/Beijing, China) with a body weight ranging from 20 to 35 g. Three mice were given an oral dose of G7883 formulated in 0.6% Methylcellulose, 0.2% Tween80 in water (MCT) at 25 mg/kg and 250 mg/kg with a dosing volume of 10 mL/kg. Food and water were available ad libitum to the animals. Three mice were given an oral dose of G6893 formulated in 0.6% methylcellulose; 0.2% Tween80 in water with pH adjusted to 2.5 at 30 mg/kg and a dose volume of 5 mL/kg. For both compounds, G7883 and G6893, 15 µL of blood was collected serially at 0. 25, 0.5, 1, 2, 4, 6, 8, and 24 h post-dose and diluted in 60 µL of 1.7 mg/mL potassium K2EDTA water. The frozen blood samples were stored at −70 °C or lower until analysis.
All plasma and cell media concentrations of G7883 and G6893 were determined using liquid chromatography–tandem mass spectrometry after protein precipitation with acetonitrile and injection of the supernatant onto the column (Waters ACQUITY UPLC BEH C18 1.7 μm, 2.1 × 50 mm for G7883 and G6893). The aqueous mobile phase was 0.1% formic acid, 2 mM ammonium formate in water/acetonitrile (v:v, 95:5), and the organic mobile phase was 0.1% formic acid, 2 mM ammonium formate in acetonitrile/water (v:v, 95:5). An AB Sciex API 4000 Triple Quad instrument was used for detecting G7883 and G6893 (Figure S2). The electrospray ionization source in both columns was operated in the positive ion and multiple reaction monitoring (MRM) detection modes. The MRM transitions for G7883 and G6893 were m/z 462.2 (Q1) and 253.10 (Q3) and m/z 454.2 (Q1) and 325.9 (Q3), respectively. The dynamic range of both assays was 0.50–50.0 ng/mL, and the total run time was 1.6 min. The lower limit of quantitation of the assay was […], and the dilution quality control concentration was set at 10 ng/mL with acceptance criteria for accuracy and precision of 25%.

[6] = Mouse IV infusion of G6893 by iPRECIO pump; format: in vivo, female C57BL-6 mice; settings: 0.5 mg/kg/h, 2.5 mg/mL in 100% PEG400, over 96 h
Description: This is often a concern for molecules in early drug discovery stages. Various formulation and delivery strategies have been devised to modify the systemic PK profiles of drug molecules, encompassing nanoparticles, microparticles, lipid and polymer conjugation, implanted infusion pump device technologies, and subcutaneous depots. Here, we examined two strategies aimed at maintaining the drug concentration at a designed target concentration for the maximum duration potentially needed for proof of concept studies. The initial approach involved using an implantable device, the iPRECIO pump that allows for a controlled and sustained infusion, as opposed to a typical bolus IV injection. The infusion pump strategies can be a promising tool to achieve the desired delivery profile of a compound, given the solubility requirements based on the intended target release and PK profile. […]
All plasma and cell media concentrations of G7883 and G6893 were determined using liquid chromatography–tandem mass spectrometry after protein precipitation with acetonitrile and injection of the supernatant onto the column (Waters ACQUITY UPLC BEH C18 1.7 μm, 2.1 × 50 mm for G7883 and G6893). […] The lower limit of quantitation of the assay was 5.1 ng/mL, and the dilution quality control concentration was set at 10 ng/mL with acceptance criteria for accuracy and precision of 25%.

[7] = Vehicle screening for solution or suspension formulations; format: physicochemical; settings: 100% PEG400
Protocol: Based on the target concentration, G7883 was screened at 3.3 mg/mL in three different vehicles of 100%PEG400, 10%DMSO in 90%PEG400, and 20%DMSO in 80%PEG400 to generate a stable solution. […] A total of 50% DMSO is the maximum amount compatible with the iPRECIO pump system. Based on the target concentration, G6893 was screened at 5 mg/mL in four different vehicles as follows: 100% PEG400, 20% DMSO in 80% PEG400, 20% DMA and 40% PG in 40% PEG400, and 10% EtOH and 20% HPbCD in 70% water at pH 4.5. G6893 achieved a solution at the target concentration of 5 mg/mL in 100% PEG400 and maintained a solution without precipitation after dilution in PBS buffer.
G7883 was screened in different oil vehicles including corn, coconut, paraffin, soybean, and sunflower oil.

Cc1c(-c2cc3cc(NC(=O)O[C@H]4COC[C@@H]4C)ncc3c(N)c2F)cnc2c1NCCO2 (racemic) [G6893, [rac-(3R,4S)-4-methyltetra hydrofuran-3-yl]N-[8-amino-7-fluoro-6-(8-methyl-2,3-dihydro-1H-pyrido[2,3-b][1,4]oxazin-7-yl)-3-isoquinolyl]carbamate]
solubility (in words) [1]: low solubility | solubility ([1]; water): < 1 µg/mL | logP [2]: 2.69 | pKa [3]: 2.53 | permeability (in words) [4]: high permeability | Papp ([4]; not told): 15 ×10⁻⁶ cm/s | IC50 (HPK1): 560 nM | Cmax ([5]; mean ± SD): 3.8 ± 1.68 µM | Tmax ([5]; mean ± SD): 0.667 ± 0.289 h | bioavailability ([5]; mean ± SD): 45.5 ± 14% | half-life ([5]; mean ± SD): 3.07 ± 1.92 h | AUC(0-t) ([5]; read-out: AUC0 to 8): 19.5 µM·h | plasma concentration relative to target concentration (IC50) [6]: successfully maintained the target concentration profile | concentration at which a solution was achieved [7]: ≥ 5000 µg/mL
